Tests used:
Experiment in all cases: hydroperoxide formation at […] nm, spectrophotometer, initial rate
Assay type in all cases: biochemical
Conditions in all cases: Tris-HCl pH 9.0, 30 °C
Ana-rLOX [1] = target: T1, Ana-rLOX (Nostoc sp. PCC 7120 = FACHB-418, UniProt Q8YK97, G578A)
T1 construct: gene all8020

Ana-rLOX [2] = target: T2, Ana-rLOX (Nostoc sp. PCC 7120 = FACHB-418, UniProt Q8YK97, S755T)
T2 construct: gene all8020

Ana-rLOX [3] = target: T3, Ana-rLOX (Nostoc sp. PCC 7120 = FACHB-418, UniProt Q8YK97, N448D/S755Y)
T3 construct: gene all8020

Ana-rLOX [4] = target: T4, Ana-rLOX (Nostoc sp. PCC 7120 = FACHB-418, UniProt Q8YK97, N448D)
T4 construct: gene all8020

Ana-rLOX [5] = target: T5, Ana-rLOX (Nostoc sp. PCC 7120 = FACHB-418, UniProt Q8YK97)
T5 construct: gene all8020
T5 sequence (Q8YK97 319-773 limits assumed): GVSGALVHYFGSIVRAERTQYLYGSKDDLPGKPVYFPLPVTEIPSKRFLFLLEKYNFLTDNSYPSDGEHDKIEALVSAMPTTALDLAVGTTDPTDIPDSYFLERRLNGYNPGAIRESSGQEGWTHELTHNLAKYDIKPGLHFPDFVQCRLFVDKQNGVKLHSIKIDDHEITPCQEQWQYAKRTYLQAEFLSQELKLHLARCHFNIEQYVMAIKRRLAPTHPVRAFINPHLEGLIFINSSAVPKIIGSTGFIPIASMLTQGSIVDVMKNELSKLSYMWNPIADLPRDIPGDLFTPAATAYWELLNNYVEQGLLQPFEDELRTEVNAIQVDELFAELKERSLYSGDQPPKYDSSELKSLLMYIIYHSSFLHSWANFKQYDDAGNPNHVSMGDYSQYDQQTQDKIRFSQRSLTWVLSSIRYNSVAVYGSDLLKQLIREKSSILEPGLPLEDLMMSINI

Ana-rLOX [6] = target: T6, Ana-rLOX (Nostoc sp. PCC 7120 = FACHB-418, UniProt Q8YK97, N448D/G578Q)
T6 construct: gene all8020
T6 sequence (Q8YK97 319-773 N448D/G578Q): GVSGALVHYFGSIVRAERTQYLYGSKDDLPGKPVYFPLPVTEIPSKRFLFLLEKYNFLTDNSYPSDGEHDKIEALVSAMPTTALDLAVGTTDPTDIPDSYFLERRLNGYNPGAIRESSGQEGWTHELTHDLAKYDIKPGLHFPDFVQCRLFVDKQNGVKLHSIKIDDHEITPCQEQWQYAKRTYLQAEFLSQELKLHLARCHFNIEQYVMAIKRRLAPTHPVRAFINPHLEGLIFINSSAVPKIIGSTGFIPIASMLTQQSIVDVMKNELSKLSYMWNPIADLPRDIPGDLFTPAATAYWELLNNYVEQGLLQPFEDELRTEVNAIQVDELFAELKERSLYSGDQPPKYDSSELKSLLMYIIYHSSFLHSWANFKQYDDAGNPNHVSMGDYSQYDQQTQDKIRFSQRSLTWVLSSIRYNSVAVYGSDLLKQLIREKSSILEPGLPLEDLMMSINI

T2 sequence (Q8YK97 319-773 S755T): as the sequence (Q8YK97 319-773 N448D/G578Q) above, with D130N, Q260G, S437T counted along it
T1 sequence (Q8YK97 319-773 G578A): as the sequence (Q8YK97 319-773 N448D/G578Q) above, with D130N, Q260A counted along it
T4 sequence (Q8YK97 319-773 N448D): as the sequence (Q8YK97 319-773 N448D/G578Q) above, with Q260G counted along it
T3 sequence (Q8YK97 319-773 N448D/S755Y): as the sequence (Q8YK97 319-773 N448D/G578Q) above, with Q260G, S437Y counted along it

Km (Ana-rLOX [1]): 34 ± 2.3 µM
Km (Ana-rLOX [2]): 56 ± 4.7 µM
Km (Ana-rLOX [3]): 15 ± 1.1 µM
Km (Ana-rLOX [4]): 30 ± 2.6 µM
Km (Ana-rLOX [5]): 56 ± 4 µM
Km (Ana-rLOX [6]): 13 ± 1 µM
Compound: CCCCC/C=C\C/C=C\CCCCCCCC(=O)O [linoleic acid]

From PMC6148764, “Consensus design for improved thermostability of lipoxygenase from Anabaena sp. PCC 7120” (BMC Biotechnology, 2018)
